Test results from ChEMBL document CHEMBL4665688, “Discovery of AB680: A Potent and Selective Inhibitor of CD73” (J Med Chem, 2020).

What was measured:
Cytochrome P450 2B6 = biological target: T1, Cytochrome P450 2B6 (Homo sapiens, UniProt P20813); experiment: Induction of CYP2B6 (unknown origin) assessed as effect on CYP2B6 mRNA expression; format: ADME
T1 sequence (P20813 whole entry): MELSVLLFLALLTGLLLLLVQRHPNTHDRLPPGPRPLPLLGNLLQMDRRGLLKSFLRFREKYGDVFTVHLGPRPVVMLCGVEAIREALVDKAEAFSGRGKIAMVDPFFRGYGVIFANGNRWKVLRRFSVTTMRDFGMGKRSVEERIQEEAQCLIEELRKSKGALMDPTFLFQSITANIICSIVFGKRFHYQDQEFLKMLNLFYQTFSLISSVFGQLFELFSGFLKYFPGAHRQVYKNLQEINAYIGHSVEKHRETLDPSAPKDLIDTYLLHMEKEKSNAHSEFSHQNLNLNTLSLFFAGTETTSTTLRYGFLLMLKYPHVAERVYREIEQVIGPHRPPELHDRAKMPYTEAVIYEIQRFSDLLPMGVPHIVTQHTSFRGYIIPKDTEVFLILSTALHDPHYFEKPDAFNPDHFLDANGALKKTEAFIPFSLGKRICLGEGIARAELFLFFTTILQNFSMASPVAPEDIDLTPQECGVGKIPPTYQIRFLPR

[1] = Clearance in Sprague-Dawley rat at 0.5 mg/kg, iv; format: ADME, organism-based; details: in vivo
[2] = Chemical stability of the compound in basic condition; format: physicochemical
[3] = biological target: T2, Nuclear receptor subfamily 1 group I member 2 (Homo sapiens, UniProt O75469); experiment: Activation of PXR (unknown origin) by reporter gene assay; format: ADME
T2 sequence (O75469 whole entry): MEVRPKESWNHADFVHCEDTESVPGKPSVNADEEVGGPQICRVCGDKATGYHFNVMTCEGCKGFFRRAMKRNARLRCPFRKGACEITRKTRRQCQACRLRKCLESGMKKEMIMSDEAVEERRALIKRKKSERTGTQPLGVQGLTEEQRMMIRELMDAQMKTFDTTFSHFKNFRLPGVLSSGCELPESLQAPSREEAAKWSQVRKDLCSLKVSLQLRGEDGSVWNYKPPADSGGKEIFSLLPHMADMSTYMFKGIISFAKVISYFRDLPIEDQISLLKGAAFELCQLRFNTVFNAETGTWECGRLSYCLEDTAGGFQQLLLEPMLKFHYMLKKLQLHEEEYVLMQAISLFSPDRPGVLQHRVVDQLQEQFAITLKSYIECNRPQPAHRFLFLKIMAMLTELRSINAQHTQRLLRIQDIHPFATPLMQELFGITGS

[4] = Chemical stability of the compound in acidic condition; format: physicochemical
Cytochrome P450 2C9 = Cytochrome P450 2C9 (Homo sapiens, UniProt P11712); experiment: Time dependent inhibition of CYP2C9 in human liver microsomes using diclofenac as substrate in presence of NADPH by LC-MS/MS analysis; format: ADME
Cytochrome P450 2D6 = Cytochrome P450 2D6 (Homo sapiens, UniProt P10635); experiment: Inhibition of CYP2D6 in human liver microsomes using dextromethorphan as substrate incubated for 5 to 20 mins in presence of NADPH by LC-MS/MS analysis; format: ADME; details: time 5-20 min
[5] = Clearance in human at 16 mg, iv administered as single infusion for 30 to 60 mins; format: ADME, organism-based; details: in vivo, time 30-60 min
Cytochrome P450 1A2 = biological target: T3, Cytochrome P450 1A2 (Homo sapiens, UniProt P05177); experiment: Time dependent inhibition of CYP1A2 in human liver microsomes using phenacetin as substrate in presence of NADPH by LC-MS/MS analysis; format: ADME
T3 sequence (P05177 whole entry): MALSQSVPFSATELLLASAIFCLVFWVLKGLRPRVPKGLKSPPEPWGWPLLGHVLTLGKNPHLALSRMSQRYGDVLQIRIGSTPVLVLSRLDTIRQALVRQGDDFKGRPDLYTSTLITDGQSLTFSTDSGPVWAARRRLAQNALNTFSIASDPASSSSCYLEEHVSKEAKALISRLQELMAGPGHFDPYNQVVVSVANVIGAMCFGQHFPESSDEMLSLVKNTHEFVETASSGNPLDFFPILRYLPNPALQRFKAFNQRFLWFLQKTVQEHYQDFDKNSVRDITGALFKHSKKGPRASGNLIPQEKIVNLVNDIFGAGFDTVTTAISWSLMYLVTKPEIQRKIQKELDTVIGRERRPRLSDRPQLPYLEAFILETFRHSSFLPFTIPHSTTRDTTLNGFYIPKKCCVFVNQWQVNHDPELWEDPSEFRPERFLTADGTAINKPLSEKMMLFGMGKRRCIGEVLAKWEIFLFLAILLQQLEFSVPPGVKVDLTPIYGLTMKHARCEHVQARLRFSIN

[6] = biological target: T4, Ectonucleoside triphosphate diphosphohydrolase 3 (Homo sapiens, UniProt O75355); experiment: Inhibition of NTPDase 3 (unknown origin) expressed in CHO cells using ATP as substrate preincubated for 1 hr followed by substrate addition and measured after 50 mins by PiColorLock gold reagent based colorimetric assay; format: cell-based
T4 sequence (O75355 whole entry): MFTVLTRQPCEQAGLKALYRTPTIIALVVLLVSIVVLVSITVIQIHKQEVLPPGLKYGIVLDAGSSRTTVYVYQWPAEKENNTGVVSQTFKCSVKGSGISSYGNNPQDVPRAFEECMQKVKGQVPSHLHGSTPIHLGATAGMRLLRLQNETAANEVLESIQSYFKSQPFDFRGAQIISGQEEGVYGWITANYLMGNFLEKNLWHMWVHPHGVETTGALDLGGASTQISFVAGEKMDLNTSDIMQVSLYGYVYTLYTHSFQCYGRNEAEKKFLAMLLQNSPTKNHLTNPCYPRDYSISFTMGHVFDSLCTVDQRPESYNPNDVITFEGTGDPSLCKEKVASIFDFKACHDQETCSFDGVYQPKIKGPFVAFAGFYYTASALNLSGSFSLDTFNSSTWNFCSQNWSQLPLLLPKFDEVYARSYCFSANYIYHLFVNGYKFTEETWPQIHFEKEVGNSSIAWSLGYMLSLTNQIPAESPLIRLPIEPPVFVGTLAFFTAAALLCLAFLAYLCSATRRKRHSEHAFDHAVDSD

[7] = Volume of distribution at steady state in monkey at 0.5 mg/kg, iv; format: ADME, organism-based, Macaca mulatta; details: rhesus monkey, in vivo, read-out: Vdss
[8] = Volume of distribution at steady state in human at 16 mg, iv administered as single infusion for 30 to 60 mins; format: ADME, organism-based; details: in vivo, time 30-60 min, read-out: Vdss
[9] = Half life in human at 16 mg, iv administered as single infusion for 30 to 60 mins; format: ADME, organism-based; details: in vivo, time 30-60 min
5'-nucleotidase [10] = biological target: T5, 5'-nucleotidase (Homo sapiens, UniProt P21589); experiment: Inhibition of CD73 in human PBMC using AMP as substrate preincubated for 60 mins followed by substrate addition and measured after 2.5 hrs by PiColorLock gold reagent based colorimetric assay; format: tissue-based
5'-nucleotidase [11] = biological target: T5, 5'-nucleotidase; experiment: Inhibition of human CD73 expressed in CHO cells using AMP as substrate preincubated for 60 mins followed by substrate addition and measured after 60 mins by PiColorLock gold reagent based colorimetric assay; format: cell-based
5'-nucleotidase [12] = biological target: T5, 5'-nucleotidase; experiment: Inhibition of CD73 in human CD8-positive T cells using AMP as substrate preincubated for 60 mins followed by substrate addition and measured after 2.5 hrs by PiColorLock gold reagent based colorimetric assay; format: cell-based, CD8-positive T cell

T5 sequence (P21589 whole entry): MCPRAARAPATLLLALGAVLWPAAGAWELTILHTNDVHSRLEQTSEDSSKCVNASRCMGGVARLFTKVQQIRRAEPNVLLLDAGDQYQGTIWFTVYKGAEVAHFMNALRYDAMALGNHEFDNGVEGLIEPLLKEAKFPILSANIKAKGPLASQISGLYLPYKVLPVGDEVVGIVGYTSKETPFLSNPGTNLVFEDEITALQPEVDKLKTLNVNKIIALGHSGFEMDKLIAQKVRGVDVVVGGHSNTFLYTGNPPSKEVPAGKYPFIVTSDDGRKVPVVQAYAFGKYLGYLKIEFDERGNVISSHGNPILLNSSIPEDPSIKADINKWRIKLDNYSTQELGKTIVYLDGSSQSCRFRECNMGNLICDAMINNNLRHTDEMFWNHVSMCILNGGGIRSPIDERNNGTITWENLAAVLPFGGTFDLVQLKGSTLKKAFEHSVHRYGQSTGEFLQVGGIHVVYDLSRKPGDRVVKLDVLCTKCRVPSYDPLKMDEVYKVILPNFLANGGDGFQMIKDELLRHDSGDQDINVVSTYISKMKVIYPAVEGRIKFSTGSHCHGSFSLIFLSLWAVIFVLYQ
Sequence of Cytochrome P450 2C9 (P11712 whole entry): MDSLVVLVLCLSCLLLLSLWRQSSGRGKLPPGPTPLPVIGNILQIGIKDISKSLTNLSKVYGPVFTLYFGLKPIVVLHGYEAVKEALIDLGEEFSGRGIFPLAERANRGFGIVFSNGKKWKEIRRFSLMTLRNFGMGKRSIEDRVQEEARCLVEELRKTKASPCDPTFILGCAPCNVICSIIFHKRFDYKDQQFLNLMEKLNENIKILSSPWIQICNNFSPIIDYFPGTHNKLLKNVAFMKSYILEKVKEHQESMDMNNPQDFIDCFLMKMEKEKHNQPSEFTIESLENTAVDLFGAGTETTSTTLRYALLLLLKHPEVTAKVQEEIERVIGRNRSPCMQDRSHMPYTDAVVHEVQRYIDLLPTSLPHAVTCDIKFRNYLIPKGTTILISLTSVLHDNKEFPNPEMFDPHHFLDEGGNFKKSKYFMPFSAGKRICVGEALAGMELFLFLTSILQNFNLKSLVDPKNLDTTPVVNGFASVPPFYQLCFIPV
Sequence of Cytochrome P450 2D6 (P10635 whole entry, the tested form may be a part): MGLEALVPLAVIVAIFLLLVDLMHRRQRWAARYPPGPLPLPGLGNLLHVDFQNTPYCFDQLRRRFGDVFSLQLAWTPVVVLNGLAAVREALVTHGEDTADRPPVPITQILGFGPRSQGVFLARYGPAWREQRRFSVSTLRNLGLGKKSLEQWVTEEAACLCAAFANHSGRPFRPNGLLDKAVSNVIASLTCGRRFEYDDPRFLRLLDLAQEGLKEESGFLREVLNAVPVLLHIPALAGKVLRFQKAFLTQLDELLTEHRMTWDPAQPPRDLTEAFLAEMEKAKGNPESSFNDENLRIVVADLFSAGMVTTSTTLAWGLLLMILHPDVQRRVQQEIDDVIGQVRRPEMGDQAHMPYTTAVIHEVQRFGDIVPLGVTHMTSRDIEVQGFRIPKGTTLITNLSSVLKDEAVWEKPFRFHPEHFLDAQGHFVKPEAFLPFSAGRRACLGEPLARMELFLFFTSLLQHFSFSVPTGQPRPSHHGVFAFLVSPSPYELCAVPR

Activity (Cytochrome P450 2B6)	clearance [1] [mL/min/kg]	Stabilty [2]	Activity [3]	Stabilty [4]	TDI (Cytochrome P450 2C9)	INH (Cytochrome P450 2D6) [µM]	clearance [5] [mL/min]	TDI (Cytochrome P450 1A2)	IC50 [6] [nM]	Vd [7] [L/kg]	Vd [8] [L]	half-life [9] [h]	IC50 (5'-nucleotidase [10]) [nM]	IC50 (5'-nucleotidase [11]) [nM]	IC50 (5'-nucleotidase [12]) [nM]	SMILES
Not Active	0.333	Stable	Not Active	Stable	Not Active	> 100	1.12	Not Active	> 10000	0.099	6.38	66.6	–	–	–	C[C@H](Nc1cc(Cl)nc2c1cnn2[C@@H]1O[C@H](COP(=O)(O)CP(=O)(O)O)[C@@H](O)[C@H]1O)c1ccccc1F
–	1.07	–	–	–	–	–	–	–	> 10000	0.096	–	–	0.0085	0.045	0.0027	C[C@H](Nc1nc(Cl)nc2c1cnn2[C@@H]1O[C@H](COP(=O)(O)CP(=O)(O)O)[C@@H](O)[C@H]1O)c1ccccc1
–	0.15	Stable	–	Stable	–	–	–	–	> 10000	0.078	–	–	0.021	0.115	0.01	C[C@H](Nc1cc(Cl)nc2c1cnn2[C@@H]1O[C@H](COP(=O)(O)CP(=O)(O)O)[C@@H](O)[C@H]1O)c1ccc(F)cc1
